Measured values reported in patent US12612410B2 (CHILDREN'S HOSPITAL MEDICAL CENTER, priority 2020, dated 2026).
Where a chain is given by its changes, count along the chain named. pKd: −log10 of the molar value.

What was measured:
FLT3 D835H = biological target: T1, FLT3 D835H (Homo sapiens, UniProt P36888, D835H); assay: DiscoverX KINOMEscan competition binding, FLT3 D835H
T1 construct: host or cells: E. coli BL21-derived host (T7 phage) or HEK-293
T1 sequence (P36888 27-993 D835H): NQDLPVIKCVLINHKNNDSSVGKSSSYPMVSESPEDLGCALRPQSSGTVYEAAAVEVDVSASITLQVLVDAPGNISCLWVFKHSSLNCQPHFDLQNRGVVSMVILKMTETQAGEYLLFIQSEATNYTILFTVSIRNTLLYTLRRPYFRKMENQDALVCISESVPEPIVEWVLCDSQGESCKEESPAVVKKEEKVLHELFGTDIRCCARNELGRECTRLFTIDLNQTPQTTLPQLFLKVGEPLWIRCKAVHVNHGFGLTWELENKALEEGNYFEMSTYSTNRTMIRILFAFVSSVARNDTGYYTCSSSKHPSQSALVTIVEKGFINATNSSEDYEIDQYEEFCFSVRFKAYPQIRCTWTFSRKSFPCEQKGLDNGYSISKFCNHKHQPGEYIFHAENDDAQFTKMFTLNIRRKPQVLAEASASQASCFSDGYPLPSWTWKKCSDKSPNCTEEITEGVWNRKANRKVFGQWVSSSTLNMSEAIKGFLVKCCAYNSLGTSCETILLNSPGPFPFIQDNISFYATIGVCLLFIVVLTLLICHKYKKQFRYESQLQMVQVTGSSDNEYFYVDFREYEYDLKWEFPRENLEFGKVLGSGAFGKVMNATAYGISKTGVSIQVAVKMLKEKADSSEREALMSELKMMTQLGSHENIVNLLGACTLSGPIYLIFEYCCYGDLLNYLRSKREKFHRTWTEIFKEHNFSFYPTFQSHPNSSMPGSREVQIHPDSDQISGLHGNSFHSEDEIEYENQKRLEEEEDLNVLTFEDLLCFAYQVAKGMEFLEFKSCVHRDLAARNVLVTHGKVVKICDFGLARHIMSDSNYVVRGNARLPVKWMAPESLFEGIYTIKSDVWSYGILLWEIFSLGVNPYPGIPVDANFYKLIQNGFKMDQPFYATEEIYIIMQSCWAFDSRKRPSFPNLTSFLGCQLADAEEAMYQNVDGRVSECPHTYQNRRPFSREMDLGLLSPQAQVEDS
Source text: (§1) Kinase binding data were obtained for various exemplary compounds prepared according to Examples 1-24 using the DiscoverX KINOMVIEscan® active site-directed competition binding site-directed assay protocol described below. […] As a result, the data report thermodynamic interaction affinities (Kd values), rather than IC50 values that are dependent on ATP concentrations. The assay uses a DNA-tagged version of the protein kinase, and an immobilized ligand bound to a solid support. Compounds that directly or indirectly prevent kinase binding to the immobilized ligand reduce the amount of kinase captured on the solid support, which is detected using an ultra-sensitive qPCR method. Affinity constants reported from the assay have been reported to be independent of the immobilized ligand used that is coupled to the solid support (See supplemental information in Fabian, M. A. et. al., (2005) Nat. Biotechnol. 23, 329-336; Wodicka, L. M. et. al., (2010) Chem. Biol. 17, 1241-1249.)
(§2) Kinase-tagged T7 phage strains were prepared in an E. coli host derived from the BL21 strain. E. coli were grown to log-phase and infected with T7 phage and incubated with shaking at 32° C. until lysis. The lysates were centrifuged and filtered to remove cell debris. The remaining kinases were produced in HEK-293 cells and subsequently tagged with DNA for qPCR detection. Streptavidin-coated magnetic beads were treated with biotinylated small molecule ligands for 30 minutes at room temperature to generate affinity resins for kinase assays. The liganded beads were blocked with excess biotin and washed with blocking buffer (SeaBlock (Pierce), 1% BSA, 0.05% Tween 20, 1 mM DTT) to remove unbound ligand and to reduce non-specific binding. Binding reactions were assembled by combining kinases, liganded affinity beads, and test compounds in 1× binding buffer (20% SeaBlock, 0.17×PBS, 0.05% Tween 20, 6 mM DTT). Test compounds were prepared as 111× stocks in 100% DMSO. Kds were determined using an 11-point 3-fold compound dilution series with three DMSO control points. All compounds for Kd measurements are distributed by acoustic transfer (non-contact dispensing) in 100% DMSO. The compounds were then diluted directly into the assays such that the final concentration of DMSO was 0.9%. All reactions were performed in polypropylene 384-well plates. Each was a final volume of 0.02 mL. The assay plates were incubated at room temperature with shaking for 1 hour and the affinity beads were washed with wash buffer (1×PBS, 0.05% Tween 20). The beads were then re-suspended in elution buffer (1×PBS, 0.05% Tween 20, 0.5 μM nonbiotinylated affinity ligand) and incubated at room temperature with shaking for 30 minutes. The kinase concentration in the eluates was measured by qPCR.
(§3) Binding constants (Kds) were calculated with a standard dose-response curve using the Hill equation. The Hill Slope was set to −1. Curves were fitted using a non-linear least square fit with the Levenberg-Marquardt algorithm.

FLT3 N841I = biological target: T2, FLT3 N841I (Homo sapiens, UniProt P36888, N841I); assay: DiscoverX KINOMEscan competition binding, FLT3 N841I
T2 construct: host or cells: E. coli BL21-derived host (T7 phage) or HEK-293
T2 sequence (P36888 27-993 N841I): T1 sequence (P36888 27-993 D835H) with H809D, N815I
Source text: as §1, §2, §3

SMILES	pKd (FLT3 D835H)	pKd (FLT3 N841I)
CC1(c2cn3c(-c4cccc(N[C@H]5CNC[C@@H]5F)n4)cnc3cn2)CC1 [Compound 1, N-((3S,4S)-4-fluoropyrrolidin-3-yl)-6-(6-(1-methylcyclopropyl)imidazo[1,2-a]pyrazin-3-yl)pyridin-2-amine]	10.18	9.92
CC1(c2cn3c(-c4cccc(N[C@@H]5CCNC5)n4)cnc3cn2)CC1 [Compound 3, (R)-6-(6-(1-methylcyclopropyl)imidazo[1,2-a]pyrazin-3-yl)-N-(pyrrolidin-3-yl)pyridin-2-amine]	10.23	9.92
CC1(c2cn3c(-c4cccc(N[C@H]5CNCC56CC6)n4)cnc3cn2)CC1 [Compound 5, (R)-N-(6-(6-(1-methylcyclopropyl)imidazo[1,2-a]pyrazin-3-yl)pyridin-2-yl)-5-azaspiro[2.4]heptan-7-amine]	10.20	10.04
FC(F)(F)C1(c2cn3c(-c4cccc(N[C@@H]5CCNC5)n4)cnc3cn2)CC1 [Compound 10, (R)-N-(pyrrolidin-3-yl)-6-(6-(1-(trifluoromethyl)cyclopropyl)imidazo[1,2-a]pyrazin-3-yl)pyridin-2-amine]	10.09	9.54
CC(C)(O)c1cn2c(-c3cccc(N[C@H]4CNCC[C@@H]4F)n3)cnc2cn1 [Compound 31, 2-(3-(6-(((3S,4S)-4-fluoropiperidin-3-yl)amino)pyridin-2-yl)imidazo[1,2-a]pyrazin-6-yl)propan-2-ol]	9.37	8.68
F[C@H]1CNC[C@@H]1Nc1cccc(-c2cnc3cnc(C4CC4)cn23)n1 [Compound 50, 6-(6-cyclopropylimidazo[1,2-a]pyrazin-3-yl)-N-((3S,4S)-4-fluoropyrrolidin-3-yl)pyridin-2-amine]	10.49	9.60

Further lines, results first:

pKd (FLT3 D835H)	pKd (FLT3 N841I)	SMILES
9.70	9.19	FC(F)c1cn2c(-c3cccc(N[C@H]4CNC[C@@H]4F)n3)cnc2cn1 [Compound 16, 6-(6-(difluoromethyl)imidazo[1,2-a]pyrazin-3-yl)-N-((3S,4S)-4-fluoropyrrolidin-3-yl)pyridin-2-amine]
9.74	9.57	FC(F)c1cn2c(-c3cccc(N[C@H]4CNCC[C@@H]4F)n3)cnc2cn1 [Compound 25, 6-(6-(difluoromethyl)imidazo[1,2-a]pyrazin-3-yl)-N-((3S,4S)-4-fluoropiperidin-3-yl)pyridin-2-amine]
8.92	8.46	CC(C)(O)c1cn2c(-c3cccc(N[C@@H]4CCCNC4)n3)cnc2cn1 [Compound 30, (R)-2-(3-(6-(piperidin-3-ylamino)pyridin-2-yl)imidazo[1,2-a]pyrazin-6-yl)propan-2-ol]
9.62	9.28	FC(F)(F)COc1cn2c(-c3cccc(N[C@@H]4CCNC4)n3)cnc2cn1 [Compound 38, (R)-N-(pyrrolidin-3-yl)-6-(6-(2,2,2-trifluoroethoxy)imidazo[1,2-a]pyrazin-3-yl)pyridin-2-amine]
10.11	9.62	Cn1cc(-c2cn3c(-c4cccc(N[C@H]5CNC[C@@H]5F)n4)cnc3cn2)cn1 [Compound 52, N-((3S,4S)-4-fluoropyrrolidin-3-yl)-6-(6-(1-methyl-1H-pyrazol-4-yl)imidazo[1,2-a]pyrazin-3-yl)pyridin-2-amine]
